US10501479B2, “Benzenesulfonyl-asymmetric ureas and medical uses thereof” (HELSINN HEALTHCARE SA, priority 2016, dated 2019)
“And” between values parts separate entries of the source, which are not always exact repeats. Identical values can stand only once.

Experiments:
[1] = molecular target: T1, recombinant human ghrelin receptor (HEK293/GRLN) (Homo sapiens, UniProt Q92847); experiment: Ghrelin inverse agonist potency (EC50) with IP-1 (IP-One HTRF) assay; format: cell-based; settings: inverse agonist potency, IP-1 assay; read-out: EC50 (Activity)
T1 construct: expressed in transfected cells
T1 sequence (Q92847 whole entry): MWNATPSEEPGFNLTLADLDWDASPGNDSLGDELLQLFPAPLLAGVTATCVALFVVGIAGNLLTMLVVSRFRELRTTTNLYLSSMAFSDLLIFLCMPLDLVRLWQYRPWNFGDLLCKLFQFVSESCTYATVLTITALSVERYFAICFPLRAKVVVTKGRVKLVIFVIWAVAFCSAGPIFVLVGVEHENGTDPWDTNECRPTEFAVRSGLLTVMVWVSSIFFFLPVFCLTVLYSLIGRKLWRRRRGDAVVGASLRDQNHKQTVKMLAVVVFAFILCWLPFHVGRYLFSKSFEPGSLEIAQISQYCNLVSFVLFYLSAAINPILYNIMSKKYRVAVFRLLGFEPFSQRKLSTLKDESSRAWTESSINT
Method in brief: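 HEK293/GRLN cells were seeded 18-22 hours before the test, then exposed to compound in stimulation buffer for 1 hour at 37° C, 5% CO2. IP-1 was detected by IP-One HTRF (IP1-d2 plus Tb-cryptate, 1 hour RT), reading 620 and 665 nm; the inverse agonist EC50 was derived from this.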

[2] = molecular target: T2, GHSR-1a (HEK293/GHSR1a cell line) (Homo sapiens, UniProt Q92847); experiment: Ghrelin antagonist potency (IC50) with calcium FLIPR assay, ghrelin 10 nM; format: cell-based; settings: ghrelin antagonist potency, read-out: IC50 (Activity)
T2 construct: expressed in transfected cells; host or cells: HEK293/GHSR1a cell line
T2 sequence (Q92847 whole entry): as above
Method in brief: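 Cells seeded 24 h before the run were loaded with calcium dye for 30-60 min at room temperature or 37° C. For agonism, compound was added at t=20 sec and the calcium signal followed for 2 minutes. For antagonism, compound plus ghrelin (10 nM) went on at t=20 sec, and IC50 reflected the drop in ghrelin response.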

[3] = Metabolic stability in dog liver microsomes; format: in vitro ADME
Method in brief: (§1)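 Test compounds were incubated with liver microsomes in 100 mM potassium phosphate buffer, pH 7.4, at 37 °C, with reactions started by an NADPH regenerating system after a 5 min preincubation. Samples taken at 0, 10, 30 and 90 min were quenched cold, centrifuged, and parent remaining was quantified by LC-MS/MS.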

[4] = Metabolic stability in rat liver microsomes; format: in vitro ADME
Method in brief: as §1

[5] = Metabolic stability in mouse liver microsomes; format: in vitro ADME
Method in brief: as §1

[6] = Animal PK study in mouse via i.v., p.o. and s.c. administration; format: in vivo; settings: for PK CLiv / PK Vdiv / PK t1/2iv: i.v.; for PK CLpo / PK Vdpo / PK t1/2po: p.o.
Method in brief: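 Single i.v. (tail vein), s.c. (neck scruff) or p.o. (gavage) dose to mice or rats; oral vehicle 1–5% DMSO/0.5% methylcellulose, i.v./s.c. vehicle 1–5% DMSO in 20% HP-β-cyclodextrin. Plasma sampled 0.083 (i.v./s.c.) or 0.25 to 24 h, analyzed by LC-MS/MS.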

[7] = Plasma protein binding (PPB), human; format: in vitro ADME; settings: read-out: PPB (H)
[8] = Plasma protein binding (PPB), mouse; format: in vitro ADME
[9] = Plasma protein binding (PPB), rat; format: in vitro ADME; settings: read-out: PPB (R) (converted)
[10] = Plasma protein binding (PPB), dog; format: in vitro ADME; settings: read-out: PPB (D) (converted)
[11] = Metabolic stability in human liver microsomes; format: in vitro ADME
Method in brief: as §1

male C57BL/6J mice = experiment: Food intake test in mouse (GHSR1a inverse agonists), cumulative food intake at 1, 2, 4, 8 and 24 hrs; format: in vivo
Procedure: Evaluation of Inverse Agonist on Food Intake Test in Mouse:
Male C57BL/6J mice, 18-22 g body weight, were fasted overnight (16 h before compound administration) and placed in a regular light dark cycle (6:00-18:00 light/18:00-6:00 dark). After 1 wk acclimation, animals were sorted into two groups (n=6 each, 2 per cage) based on body weight. Animals in group one were be treated with vehicle and animals in group 2 were treated with the test agent (n=6 for each group). The cumulative food intake was evaluated at 1, 2, 4, 8 and 24 hrs after drug or vehicle treatment. Food intake was measured by subtracting uneaten food from the initial premeasured food.
Food Intake Study—Evaluation of GHSR1a inverse agonists on Food Intake Test in Mouse:
Twelve male C57BL/6J mice, weighing 18-22 g each, were fasted overnight (16 h before compound administration) and placed in a regular light dark cycle (6:00-18:00 light/18:00-6:00 dark). After 1 week acclimation, animals were sorted into two groups (n=6 each, 2 per cage) based on body weight. Animals in group one were treated with carrier minus the test compound. (control group) and animals in group 2 were treated with carrier with the test compound (experimental group). The cumulative food intake was evaluated at 1, 2, 4, 8 and 24 hrs after experimental or control treatment. Food intake was measured by subtracting uneaten food from the initial premeasured food.

Compound	EC50 [1]	IC50 [2]	Metabolic Stability Study D = dog [3]	Metabolic Stability Study R = rat [4]	Metabolic Stability Study M = mouse [5]	PK F [6]	PK CLiv [6]	PK Vdiv [6]	PK t1/2iv [6]	PK CLpo [6]	PK Vdpo [6]	PK t1/2po [6]	fraction unbound [7]	fraction unbound [8]	fraction unbound [9]	fraction unbound [10]	Metabolic Stability Study H = human [11]	Food Intake Study (male C57BL/6J mice; 5 mg/kg sc fasted mice)	Food Intake Study (male C57BL/6J mice; 30 mg/kg po fasted mice)
C[C@H](NC(=O)Nc1ccc(S(=O)(=O)Cc2ccc3c(c2)CCN(C)C3)cc1)c1cccc(Cl)c1Cl [H1071, (S)-1-(1-(2,3-dichlorophenyl)ethyl)-3-(4-(((2-methyl-1,2,3,4-tetrahydroisoquinolin-6-yl)methyl)sulfonyl)phenyl)urea]	1.7 nM	5 nM	172.6 µL/min/mg and 160.7 µL/min/mg	274 µL/min/mg and 188 µL/min/mg	80.7 µL/min/mg and 152.5 µL/min/mg	19.9%	28.5 mL/min/kg	2.83 L/kg	1.15 h	138 mL/min/kg	21.1 L/kg	1.77 h	0.0089	0.0098	0.0087	0.0082			
C[C@H](NC(=O)Nc1ccc(S(=O)(=O)Nc2ccc(CC(C)(C)N(C)C)cc2)cc1)c1cccc(Cl)c1Cl [H0967, (S)-4-(3-(1-(2,3-dichlorophenyl)ethyl)ureido)-N-(4-(2-(dimethylamino)-2-methylpropyl)phenyl) benzenesulfonamide]	4.7 nM	16 nM			58 µL/min/mg	0.2%	39 mL/min/kg	8.62 L/kg	2.56 h	11620 mL/min/kg	2326.2 L/kg	2.31 h					38.2 µL/min/mg	30 mg/kg po fasted - inh 5 mg/kg sc fasted - inh	30 mg/kg po fasted - inh 5 mg/kg sc fasted - inh
C[C@H](NC(=O)Nc1ccc(S(=O)(=O)Nc2ccc(CC(C)(C)N)cc2)cc1)c1ccc(-c2cnccn2)c(Cl)c1Cl [H0906, (S)-N-(4-(2-amino-2-methylpropyl)phenyl)-4-(3-(1-(2,3-dichloro-4-(pyrazin-2-yl)phenyl)ethyl)ureido) benzenesulfonamide]	6.8 nM	18.9 nM		13.6 µL/min/mg	24.4 µL/min/mg	0.1%	3 mL/min/kg	0.27 L/kg	1.03 h	3991.2 mL/min/kg	479.77 L/kg	1.39 h	0.0016	0.0004			19.9 µL/min/mg		
C[C@H](NC(=O)Nc1ccc(S(=O)(=O)Nc2ccc(CO)cc2)cc1)c1cccc(Cl)c1Cl [H1062, (S)-4-(3-(1-(2,3-dichlorophenyl)ethyl)ureido)-N-(4-(hydroxymethyl)phenyl) benzenesulfonamide]	58 nM	222 nM			67.2 µL/min/mg								0.0012	0.0019	0.0012	0.0017	32.4 µL/min/mg		
C[C@H](NC(=O)Nc1ccc(S(=O)(=O)Cc2ccc(CO)cc2)cc1)c1cccc(Cl)c1Cl [H1060, (S)-1-(1-(2,3-dichlorophenyl)ethyl)-3-(4-((4-(hydroxymethyl)benzyl)sulfonyl)phenyl)urea]	40.8 nM	280 nM			108.7 µL/min/mg	18.8%	68.8 mL/min/kg	8.25 L/kg	1.37 h	368 mL/min/kg	22.4 L/kg	0.7 h	0.0013	0.0019	0.0018	0.0012	40 µL/min/mg		
C[C@H](NC(=O)Nc1ccc(S(=O)(=O)Cc2ccc3c(c2)CNC3)cc1)c1ccccc1 [H1215, (S)-1-(4-((isoindolin-5-ylmethyl)sulfonyl)phenyl)-3-(1-phenylethyl)urea]	4.6 nM	12.4 nM	16.6 µL/min/mg	18.5 µL/min/mg	13.7 µL/min/mg								0.097	0.093	0.065		21 µL/min/mg		
C[C@H](NC(=O)Nc1ccc(S(=O)(=O)Cc2ccc(CC(C)(C)N)cc2)cc1)c1cccc(Cl)c1Cl [H0969, (S)-1-(4-((4-(2-amino-2-methylpropyl)benzyl)sulfonyl)phenyl)-3-(1-(2,3-dichlorophenyl)ethyl)urea]	18.9 nM	53 nM			74.4 µL/min/mg	1.3%	7.67 mL/min/kg	1.97 L/kg	2.96 h	450.2 mL/min/kg	168.2 L/kg	4.32 h					19.5 µL/min/mg		30 mg/kg po fasted - inh
CC(C)(N)Cc1ccc(NS(=O)(=O)c2ccc(NC(=O)NCc3cccc(Cl)c3Cl)cc2)cc1 [H0968, N-(4-(2-amino-2-methylpropyl)phenyl)-4-(3-(2,3-dichlorobenzyl)ureido) benzenesulfonamide]	5.7 nM	44 nM			27.4 µL/min/mg												32.5 µL/min/mg		30 mg/kg po fasted - inh
CNC(C)(C)Cc1ccc(NS(=O)(=O)c2ccc(NC(=O)N[C@@H](C)c3ccc(-c4cnccn4)c(Cl)c3Cl)cc2)cc1 [H0941, (S)-4-(3-(1-(2,3-dichloro-4-(pyrazin-2-yl)phenyl)ethyl)ureido)-N-(4-(2-methyl-2-(methylamino)propyl)phenyl) benzenesulfonamide]	2.8 nM	7.7 nM	48.2 µL/min/mg	36.2 µL/min/mg	66.2 µL/min/mg								0.0002	0.0005			47.7 µL/min/mg		
